ChEMBL document CHEMBL1201862, “PubChem BioAssay data set” (2004)
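Values below derive from 48-hour exposures of cells grown in 96-well plates, with endpoints linearly interpolated between the two concentrations bracketing the appropriate inhibition level. Abbreviation: GI50, concentration required for 50% inhibition of growth.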 Activity calls are given as the source filed them. No stated cut-off is given here; in the data, active = GI50 up to about 1.1 µM and inactive = higher.

Columns and labels:
Test in all cases: NCI-60 cell line screen, 48 h
SK-MEL-5 = test system: SK-MEL-5
UO-31 = test system: UO-31
SF-295 = test system: SF-295
SF-268 = test system: SF-268
SK-MEL-28 = test system: SK-MEL-28
K562 = test system: K562
MOLT-4 = test system: MOLT-4
HCT-116 = test system: HCT-116
OVCAR-4 = test system: OVCAR-4
SNB-19 = test system: SNB-19
ACHN = test system: ACHN
NCI-H460 = test system: NCI-H460
HOP-92 = test system: HOP-92
HCT-15 = test system: HCT-15
SW-620 = test system: SW-620
CCRF-CEM = test system: CCRF-CEM
A549 = test system: A549
M14 = test system: M14

**Q.** For `Cc1nc(Nc2ccccc2)sc1C(=O)CC(=O)C(=O)Nc1c(C(C)C)cccc1C(C)C`, which GI50 (SK-MEL-5) is on record?
**A.** > 100 µM (inactive)

**Q.** What about the GI50 (UO-31) of the same compound?
**A.** 78.5 µM (inactive)

**Q.** And the GI50 (SF-295)?
**A.** > 100 µM (inactive)

**Q.** What about the GI50 (SF-268) of the same compound?
**A.** > 100 µM (inactive)

**Q.** What about the GI50 (SK-MEL-28) of the same compound?
**A.** > 100 µM (inactive)

**Q.** And the GI50 (K562)?
**A.** 83 µM (inactive)

**Q.** What about the GI50 (MOLT-4) of the same compound?
**A.** > 100 µM (inactive)

**Q.** What about the GI50 (HCT-116) of the same compound?
**A.** > 100 µM (inactive)

**Q.** And the GI50 (OVCAR-4)?
**A.** > 100 µM (inactive)

**Q.** And the GI50 (SNB-19)?
**A.** > 100 µM (inactive)

**Q.** And the GI50 (ACHN)?
**A.** 95.1 µM (inactive)

**Q.** And the GI50 (NCI-H460)?
**A.** > 100 µM (inactive)

**Q.** And the GI50 (HOP-92)?
**A.** 32.6 µM (inactive)

**Q.** What about the GI50 (HCT-15) of the same compound?
**A.** 98.9 µM

**Q.** And the GI50 (SW-620)?
**A.** > 100 µM (inactive)

**Q.** And the GI50 (CCRF-CEM)?
**A.** 89.7 µM (inactive)

**Q.** What about the GI50 (A549) of the same compound?
**A.** > 100 µM (inactive)

**Q.** What about the GI50 (M14) of the same compound?
**A.** > 100 µM (inactive)

**Q.** `COc1ccc(/C=C/c2nnc(S)[nH]2)cc1` was tested. Which GI50 (SK-MEL-5) did it give?
**A.** > 100 µM (inactive)

**Q.** And the GI50 (UO-31)?
**A.** > 100 µM (inactive)

**Q.** And the GI50 (SF-295)?
**A.** > 100 µM (inactive)

**Q.** What about the GI50 (SF-268) of the same compound?
**A.** > 100 µM (inactive)

**Q.** What about the GI50 (SK-MEL-28) of the same compound?
**A.** > 100 µM (inactive)

**Q.** What about the GI50 (K562) of the same compound?
**A.** > 100 µM (inactive)

**Q.** And the GI50 (MOLT-4)?
**A.** > 100 µM (inactive)

**Q.** And the GI50 (HCT-116)?
**A.** > 100 µM (inactive)

**Q.** What about the GI50 (OVCAR-4) of the same compound?
**A.** > 100 µM (inactive)

**Q.** What about the GI50 (SNB-19) of the same compound?
**A.** > 100 µM (inactive)

**Q.** And the GI50 (ACHN)?
**A.** > 100 µM (inactive)

**Q.** And the GI50 (NCI-H460)?
**A.** > 100 µM (inactive)

**Q.** And the GI50 (HOP-92)?
**A.** > 100 µM (inactive)

**Q.** What about the GI50 (HCT-15) of the same compound?
**A.** > 100 µM

**Q.** And the GI50 (SW-620)?
**A.** > 100 µM (inactive)

**Q.** And the GI50 (CCRF-CEM)?
**A.** > 100 µM (inactive)

**Q.** And the GI50 (A549)?
**A.** > 100 µM (inactive)

**Q.** And the GI50 (M14)?
**A.** > 100 µM (inactive)

**Q.** What does the source list for `Cc1nc(C(N)=S)sc1C(=O)/C=C/c1c(O)ccc2ccccc12`?
**A.** GI50 (SK-MEL-5): 32.4 µM (inactive); GI50 (UO-31): 58.2 µM (inactive); GI50 (SF-295): 51.5 µM (inactive); GI50 (SF-268): 28.5 µM (inactive); GI50 (SK-MEL-28): > 71.6 µM (inactive); GI50 (K562): 25.9 µM (inactive); GI50 (MOLT-4): 21.2 µM (inactive); GI50 (HCT-116): 80.2 µM (inactive); GI50 (OVCAR-4): > 100 µM (inactive); GI50 (SNB-19): > 100 µM (inactive); GI50 (ACHN): > 100 µM (inactive); GI50 (NCI-H460): > 100 µM (inactive); GI50 (HOP-92): > 74.1 µM (inactive); GI50 (HCT-15): > 95.9 µM; GI50 (SW-620): 39.4 µM (inactive); GI50 (CCRF-CEM): 21.6 µM (inactive); GI50 (A549): > 100 µM (inactive); GI50 (M14): > 100 µM (inactive)

**Q.** Which results are given for `Nc1nc(NC2C=C(CO)C(O)C2O)c([N+](=O)[O-])c(=O)[nH]1` (stereo not drawn)?
**A.** GI50 (SK-MEL-5): > 100 µM (inactive); GI50 (UO-31): > 100 µM (inactive); GI50 (SF-295): > 100 µM (inactive); GI50 (SF-268): > 100 µM (inactive); GI50 (SK-MEL-28): > 100 µM (inactive); GI50 (K562): > 100 µM (inactive); GI50 (MOLT-4): > 100 µM (inactive); GI50 (HCT-116): > 100 µM (inactive); GI50 (OVCAR-4): > 100 µM (inactive); GI50 (SNB-19): > 100 µM (inactive); GI50 (ACHN): > 100 µM (inactive); GI50 (NCI-H460): > 100 µM (inactive); GI50 (HOP-92): > 100 µM (inactive); GI50 (HCT-15): > 100 µM; GI50 (SW-620): > 100 µM (inactive); GI50 (CCRF-CEM): > 100 µM (inactive); GI50 (A549): > 100 µM (inactive); GI50 (M14): > 100 µM (inactive)

**Q.** `Cc1ccc(C(=O)/C=C/c2ccccc2Cl)cc1` was tested. Which GI50 (SK-MEL-5) did it give?
**A.** 20.9 µM (inactive)

**Q.** What about the GI50 (UO-31) of the same compound?
**A.** 18.6 µM (inactive)

**Q.** What about the GI50 (SF-295) of the same compound?
**A.** 19.2 µM (inactive)

**Q.** And the GI50 (SF-268)?
**A.** 20.5 µM (inactive)

**Q.** What about the GI50 (SK-MEL-28) of the same compound?
**A.** 14.2 µM (inactive)

**Q.** And the GI50 (K562)?
**A.** 19.7 µM (inactive)

**Q.** And the GI50 (MOLT-4)?
**A.** 19.6 µM (inactive)

**Q.** And the GI50 (HCT-116)?
**A.** 11.8 µM (inactive)

**Q.** What about the GI50 (OVCAR-4) of the same compound?
**A.** 17.1 µM (inactive)

**Q.** And the GI50 (SNB-19)?
**A.** 18.4 µM (inactive)

**Q.** And the GI50 (ACHN)?
**A.** 15.9 µM (inactive)

**Q.** What about the GI50 (NCI-H460) of the same compound?
**A.** 14.9 µM (inactive)

**Q.** And the GI50 (HOP-92)?
**A.** 30.1 µM (inactive)

**Q.** And the GI50 (HCT-15)?
**A.** 15 µM

**Q.** What about the GI50 (SW-620) of the same compound?
**A.** 13.6 µM (inactive)

**Q.** And the GI50 (CCRF-CEM)?
**A.** 18.8 µM (inactive)

**Q.** And the GI50 (A549)?
**A.** 33.7 µM (inactive)

**Q.** And the GI50 (M14)?
**A.** 17.6 µM (inactive)

**Q.** `COc1cc(C=O)c(-c2cc(OC)c(OC)cc2C=O)cc1OC` was tested. Which GI50 (SK-MEL-5) did it give?
**A.** 76.6 µM (inactive)

**Q.** And the GI50 (UO-31)?
**A.** 64.6 µM (inactive)

**Q.** What about the GI50 (SF-295) of the same compound?
**A.** > 100 µM (inactive)

**Q.** And the GI50 (SF-268)?
**A.** 46.7 µM (inactive)

**Q.** And the GI50 (SK-MEL-28)?
**A.** 47.8 µM (inactive)

**Q.** What about the GI50 (K562) of the same compound?
**A.** 36.7 µM (inactive)

**Q.** And the GI50 (MOLT-4)?
**A.** 50.6 µM (inactive)

**Q.** And the GI50 (HCT-116)?
**A.** 70.3 µM (inactive)

**Q.** What about the GI50 (OVCAR-4) of the same compound?
**A.** > 100 µM (inactive)

**Q.** What about the GI50 (SNB-19) of the same compound?
**A.** > 100 µM (inactive)

**Q.** And the GI50 (ACHN)?
**A.** > 100 µM (inactive)

**Q.** And the GI50 (NCI-H460)?
**A.** 90.4 µM (inactive)

**Q.** And the GI50 (HOP-92)?
**A.** > 100 µM (inactive)

**Q.** What about the GI50 (HCT-15) of the same compound?
**A.** > 100 µM

**Q.** What about the GI50 (SW-620) of the same compound?
**A.** 78 µM (inactive)

**Q.** What about the GI50 (CCRF-CEM) of the same compound?
**A.** 30.1 µM (inactive)

**Q.** And the GI50 (A549)?
**A.** > 100 µM (inactive)

**Q.** And the GI50 (M14)?
**A.** > 100 µM (inactive)
